Test results from patent publication US6593480B2 (Abbott Laboratories, priority 1999, dated 2003).

Target: T1, Human glucocorticoid receptors (Homo sapiens, UniProt P04150)
T1 construct: made in house; host or cells: Sf9 insect cells, recombinant baculovirus (BAC-TO-BAC)
T1 sequence (P04150 1-777): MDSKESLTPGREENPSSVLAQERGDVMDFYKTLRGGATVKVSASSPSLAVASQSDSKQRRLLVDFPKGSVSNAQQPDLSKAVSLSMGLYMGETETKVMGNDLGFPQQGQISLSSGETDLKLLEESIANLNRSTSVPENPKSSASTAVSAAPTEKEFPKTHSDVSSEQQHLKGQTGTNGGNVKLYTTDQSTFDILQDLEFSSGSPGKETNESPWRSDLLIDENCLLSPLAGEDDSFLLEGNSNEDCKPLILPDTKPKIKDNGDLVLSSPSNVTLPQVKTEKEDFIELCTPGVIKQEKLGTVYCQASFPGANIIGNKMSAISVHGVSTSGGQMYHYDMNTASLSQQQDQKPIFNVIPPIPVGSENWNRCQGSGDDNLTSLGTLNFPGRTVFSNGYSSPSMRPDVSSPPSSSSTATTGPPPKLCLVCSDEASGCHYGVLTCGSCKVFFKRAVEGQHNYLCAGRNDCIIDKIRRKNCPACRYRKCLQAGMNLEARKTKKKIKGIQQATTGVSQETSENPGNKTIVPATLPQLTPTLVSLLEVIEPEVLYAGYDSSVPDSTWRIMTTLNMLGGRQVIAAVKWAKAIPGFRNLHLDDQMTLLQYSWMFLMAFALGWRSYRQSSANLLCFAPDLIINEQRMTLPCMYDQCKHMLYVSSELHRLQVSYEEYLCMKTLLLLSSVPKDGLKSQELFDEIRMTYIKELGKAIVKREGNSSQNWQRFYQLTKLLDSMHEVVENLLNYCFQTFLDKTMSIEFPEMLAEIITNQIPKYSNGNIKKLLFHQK
Experiment: Radioligand filter binding assay, displacement of 3(H)-dexamethasone from human glucocorticoid receptor cytosol
Settings: 1.7 μM test compound, inhibition of 3(H)-dex binding to hGR; for inhibition at 1.7 µM: read-out: GR BINDING (% Inhibition @ 1.7 μM)

SMILES | GR BINDING (% Inhibition @ 1.7 μM) [%] | inhibition at 1.7 µM [%]
COc1cccc2c1-c1ccc(NS(C)(=O)=O)cc1C(c1cccc(O)c1)O2 (centres unmarked) [Example 34, (1-methoxy-6-(3-hydroxy)phenyl-6H-dibenzo(b,d)pyran-8-yl)-methanesulfonamide] | 81.6 | –
C=CCOc1cccc2c1-c1ccc(NS(C)(=O)=O)cc1C(c1ccccc1)O2 (centres unmarked) [Example 78, N-[1-(allyloxy)-6-phenyl-6H-benzo[c]chromen-8-yl]methanesulfonamide] | – | 77.9
CCCC1Oc2cccc(OC(F)F)c2-c2ccc(NS(C)(=O)=O)cc21 (racemic) [Example 27] | – | 86.8
CS(=O)(=O)Nc1ccc2c(c1)C(c1ccccc1)Oc1cccc(-c3ccco3)c1-2 (racemic) [Example 40] | – | 69.3
CCOC(=O)CCC1Oc2cccc(OC)c2-c2ccc(NS(C)(=O)=O)cc21 (centres unmarked) [Example 46] | – | 84.6
CCC(=O)Nc1ccc2c(c1)C(c1ccccc1)Oc1cccc(OC)c1-2 (centres unmarked) [Example 13, (1-methoxy-6-phenyl-6H-dibenzo(b,d)pyran-8-yl)propionamide] | 85.4 | –
C[Si](C)(C)CCCc1cccc(C2Oc3cccc(OC(F)F)c3-c3ccc(NS(C)(=O)=O)cc32)c1 (centres unmarked) [Example 134, N-(1-(difluoromethoxy)-6-{3-[3-(trimethylsilyl)propyl]phenyl}-6H-benzo[c]chromen-8-yl)methanesulfonamide] | – | 88.8
COc1cccc2c1-c1ccc(NS(=O)(=O)/C=C/c3ccccc3)cc1C(c1ccccc1)O2 (centres unmarked) [Example 11, (1-methoxy-6-phenyl-6H-dibenzo(b,d)pyran-8-yl)-(2-phenyl-E-ethenyl) sulfonamide] | – | 57.8
COc1cccc2c1-c1ccc(NC(=O)C(F)(F)F)cc1C(c1ccccc1)O2 (centres unmarked) [Example 22, (1-methoxy-6-phenyl-6H-dibenzo(b,d)pyran-8-yl)trifluoroacetamide] | – | 87.9
COc1cccc2c1-c1ccc(NS(C)(=O)=O)cc1C(Cc1cccc(C#N)c1)O2 (centres unmarked) [Example 49] | – | 75.1
COc1cccc2c1-c1ccc(NS(C)(=O)=O)cc1C(C#N)O2 (centres unmarked) [Example 90, N-(6-cyano-1-methoxy-6H-benzo[c]chromen-8-yl)methanesulfonamide] | – | 55.1
COc1cccc2c1-c1ccc(NS(C)(=O)=O)cc1[C@@H](c1ccccc1)O2 [Example 23, 6R-(1-methoxy-6-phenyl-6H-dibenzo(b,d)pyran-8-yl)methanesulfonamide] | 36.9 | –
CCOC(=O)/C=C/COc1cccc(C2Oc3cccc(OC)c3-c3ccc(NS(C)(=O)=O)cc32)c1 (centres unmarked) [Example 94, ethyl (2E)-4-(3-{1-methoxy-8-[(methylsulfonyl)amino]-6H-benzo[c]chromen-6-yl}phenoxy)-2-butenoate] | – | 79.6
COc1cccc2c1-c1ccc(NC(=O)C3CC3)cc1C(c1ccccc1)O2 (centres unmarked) [Example 16, (1-methoxy-6-phenyl-6H-dibenzo(b,d)pyran-8-yl)cyclopropanecarboxamide] | 74.3 | –
CC#Cc1cccc2c1-c1ccc(NS(C)(=O)=O)cc1C(c1ccccc1)O2 (racemic) [Example 39] | – | 90.6
COc1cc(C)cc2c1-c1ccc(NS(C)(=O)=O)cc1C(c1ccccc1)O2 (centres unmarked) [Example 67, (1-methoxy-3-methyl-6-phenyl-6H-dibenzo(b,d)pyran-8-yl)methanesulfonamide] | – | 49.3
C=CCc1cccc2c1-c1ccc(NS(C)(=O)=O)cc1C(c1ccccc1)O2 (racemic) [Example 41] | – | 88.7
COc1cccc2c1-c1ccc(NC(=O)C(C)C)cc1C(c1ccccc1)O2 (centres unmarked) [Example 14] | 85.1 | –
CC(=O)c1cccc2c1-c1ccc(NS(C)(=O)=O)cc1C(c1ccccc1)O2 (centres unmarked) [Example 38] | – | 58.9
COc1cccc2c1-c1ccc(NCC3CC3)cc1C(c1ccccc1)O2 (centres unmarked) [Example 20, (1-methoxy-6-phenyl-6H-dibenzo(b,d)pyran-8-yl)cyclopropylmethylamine] | – | 54.4

More lines, now with the values ahead:

GR BINDING (% Inhibition @ 1.7 μM) [%] | inhibition at 1.7 µM [%] | SMILES
– | 90.8 | CCOC(=O)CCCc1cccc(C2Oc3cccc(OC)c3-c3ccc(NS(C)(=O)=O)cc32)c1 (centres unmarked) [Example 150, ethyl 4-(3-{1-methoxy-8-[(methylsulfonyl)amino]-6H-benzo[c]chromen-6-yl}phenyl)butanoate]
– | 86.8 | CS(=O)(=O)Nc1ccc2c(c1)C(c1ccccc1)Oc1cccc(CO)c1-2 (centres unmarked) [Example 104, N-[1-(hydroxymethyl)-6-phenyl-6H-benzo[c]chromen-8-yl]methanesulfonamide]
– | 93.6 | COCCCCCCc1cccc(C2Oc3cccc(OC(F)F)c3-c3ccc(NS(C)(=O)=O)cc32)c1 (centres unmarked) [Example 141, N-{1-(difluoromethoxy)-6-[3-(6-methoxyhexyl)phenyl]-6H-benzo[c]chromen-8-yl}methanesulfonamide]
– | 78.2 | COc1cccc2c1-c1ccc(NS(C)(=O)=O)cc1C(c1cccc(CCCC(=O)N3CCCCC3)c1)O2 (centres unmarked) [Example 142, N-(1-methoxy-6-{3-[4-oxo-4-(1-piperidinyl)butyl]phenyl}-6H-benzo[c]chromen-8-yl)methanesulfonamide]
– | 69 | COc1cccc2c1-c1ccc(NS(C)(=O)=O)cc1C(c1cccc(N(C)S(=O)(=O)c3ccc(-c4ccon4)s3)c1)O2 (centres unmarked) [Example 149, 5-(3-isoxazolyl)-N-(3-{1-methoxy-8-[(methylsulfonyl)amino]-6H-benzo[c]chromen-6-yl}phenyl)-N-methyl-2-thiophenesulfonamide]
– | 82.7 | COc1ccc(S(=O)(=O)N(C)c2cccc(C3Oc4cccc(OC)c4-c4ccc(NS(C)(=O)=O)cc43)c2)cc1 (centres unmarked) [Example 148, 4-methoxy-N-(3-{1-methoxy-8-[(methylsulfonyl)amino]-6H-benzo[c]chromen-6-yl}phenyl)-N-methylbenzenesulfonamide]
– | 42.7 | COCCOCOc1ccc2c(c1OC)-c1ccc(NS(C)(=O)=O)cc1C(c1ccccc1)O2 (centres unmarked) [Example 106, N-{1-methoxy-2-[(2-methoxyethoxy)methoxy]-6-phenyl-6H-benzo[c]chromen-8-yl}methanesulfonamide]
– | 83.5 | C=CCOc1ccc2c(c1OC)-c1ccc(NS(C)(=O)=O)cc1C(c1ccccc1)O2 (centres unmarked) [Example 105, N-[2-(allyloxy)-1-methoxy-6-phenyl-6H-benzo[c]chromen-8-yl]methanesulfonamide]
87.4 | – | C=CCCCc1cccc(C2Oc3cccc(OC)c3-c3ccc(NS(C)(=O)=O)cc32)c1 (centres unmarked) [Example 111, N-{1-nethoxy-6-[3-(4-pentenyl)phenyl]-6H-benzo[c]chromen-8-yl}methanesulfonamide]
– | 91.3 | COc1cccc2c1-c1ccc(NS(C)(=O)=O)cc1C(c1ccc(/C=C/c3ccccc3)s1)O2 (centres unmarked) [Example 101, N-(1-methoxy-6-{5-[(E)-2-phenylethenyl]-2-thienyl}-6H-benzo[c]chromen-8-yl)methanesulfonamide]
– | 74.8 | COc1cccc2c1-c1ccc(NS(C)(=O)=O)cc1C(c1cccc(N(C)C(C)=O)c1)O2 (centres unmarked) [Example 110, N-(3-{1-methoxy-8-[(methylsulfonyl)amino]-6H-benzo[c]chromen-6-yl}phenyl)-N-methylacetamide]
– | 87.7 | COc1cccc2c1-c1ccc(NS(C)(=O)=O)cc1C(c1cccc(CCCCC#N)c1)O2 (centres unmarked) [Example 113, N-{6-[3-(4-cyanobutyl)phenyl]-1-methoxy-6H-benzo[c]chromen-8-yl}methanesulfonamide]
